What all share (format): cell-based
In assay [1] the test system is immortalized human meibomian gland epithelial cells. Briefly: Cell proliferation, cells counted with a hemocytometer. The note with it: for cell proliferation: 10 nM IGF-1 or 10 μg/mL AZM, 13 days, P<0.0001; for cell number: 10 nM. On the procedure: (§1) As an example of these experiments, immortalized human meibomian gland epithelial cells were cultured in the presence or absence of 10% fetal bovine serum. Cells were treated with an ethanol vehicle or azithromycin (10 μg/ml; Santa Cruz Biotechnology) for varying time periods. Cellular morphological appearance was recorded, cells were counted with a hemocytometer, and lipid accumulation was assessed by staining the cells with LipidTOX green neutral lipid stain (Invitrogen, Grand Island, N.Y.), according to reported methods. Staining fluorescent intensities were quantified by using ImageJ (http://rsbweb.nih.gov/ij/index.html). Statistical analyses were performed with Student's t-test (two-tailed, unpaired).
(§2) Immortalized human meibomian gland epithelial cells (IHMGECs; passages 20-22) were cultured in the presence or absence of 10% fetal bovine serum. Cells were treated with the ethanol vehicle or azithromycin (10 μg/mL) for varying periods. Cellular morphological appearance was recorded, cells were counted with a hemocytometer, and lipid accumulation was assessed by staining cells with LipidTOX green neutral lipid stain (Invitrogen Corp). Staining fluorescent intensities were quantified using ImageJ software (http://rsbweb.nih.gov/ij/index.html). Statistical analyses were performed with t test (2-tailed, unpaired).
Regarding cell proliferation assay, the human meibomian gland epithelial cells and LNCaP cells were cultured in 12-well plates in designated media and then exposed to IGF-1 or GH for defined periods. At experimental termination, cells were trypsinized and counted with a hemocytometer.
FIGS. 10a, 10b, and 10c illustrate the influence of IGF-1 on the proliferation of human meibomian gland epithelial cells. Cells were cultured (100,000 cells/well in 12-well plates, 3 wells per group) in basal, proliferating, and/or differentiating media and treated with IGF-I for 2 to 6 days. […] P values are for post hoc comparison compared with the control value. […] ANOVA indicates analysis of variance; EGF-BPE, epidermal growth factor-bovine pituitary extract; KSFM, keratinocyte serum-free medium. All comparisons are with control value. Whiskers mark SEM. aP<0.05 compared with the control value, post hoc test.

For assay [2] the test system is unchanged. As to the kind of experiment: LipidTOX green neutral lipid staining (lipid accumulation). The note with it: for accumulation of lipid: days 1 to 7; for accumulation of neutral lipids: 10 nM, 6 days, differentiation media. On the procedure: as §1, §2
Cell numbers were enumerated with a hemocytometer. Cellular lipid and lysosome accumulation were examined by staining cells with: Filipin III (a fluorometric probe for identifying unesterified cholesterol), LipidTOX green neutral lipid stain, and LysoTracker® Red DND-99 (a fluorescent technique designed for labeling acidic organelles such as lysosomes). Lysosomal lamellar bodies were identified by transmission electron microscopy. In brief, after culture and treatment on 24 mm polycarbonate membrane transwell inserts (0.4 μm pore size), cells were fixed in a solution of 2% formaldehyde+2.5% glutaraldehyde, in 0.08 M sodium cacodylate buffer, pH 7.4, post-fixed with 2% osmium tetroxide in 0.1 M sodium cacodylate buffer, and stained en bloc with 2% aqueousuranyl acetate. […] Cross sections (1 μM) were stained with 1% toluidine blue in 1% sodium tetraborate solution. Ultra-thin sections (60-90 nm) were imaged with a transmission electron microscope interfaced with a digital CCD camera. For biochemical assessments, cellular lipids were extracted with chloroform and methanol from samples with the same amount of protein. Lipids were then evaluated with high-performance thin-layer chromatography. With regard to the staining results, three Filipin, five LipidTox and four LysoTracker studies were conducted, and each experiment was performed in duplicate. Four random pictures were taken of each group, and four random areas were selected for the measurement of fluorescent intensities. The HPTLC experiments were performed in duplicate more than three times. Image data were quantified with ImageJ (http://rsbweb.nib.gov/ij/index.html). Electron microscopic analyses were performed in triplicate.
The experiment included green neutral lipid staining. Immortalized human meibomian gland epithelial cells were cultured in slides treated to facilitate cell growth in FBS-containing medium in the presence or absence of IGF-1, anti-IGF-1R, and/or GH. Media were replaced every 2 to 3 days for a total of 6 days, at which time cells were washed and fixed in 4% paraformaldehyde for 30 minutes. After additional washes, cells were stained with green neutral lipid stain in a humid chamber for 30 minutes. Coverslips were mounted on slides with an antifade reagent that contains 4′,6-diamidino-2-phenylindole nuclear stain and permitted to dry overnight before imaging with a microscope. Fluorescence intensity was quantified using image-processing software.

For assay [3], the system named is human meibomian gland epithelial cells. As to the kind of experiment: Immunoblot of SREBP-1 and cyclins B1, D1. To be noted: for amount of the precursor form of SREBP-1 protein: 10 nM, 6 days, differentiation media. On the procedure:
The disclosure turns now to sodium dodecyl sulfate-polyacrylamide gel, electrophoresis, and immunoblots. Cells were directly lysed in Laemmli buffer supplemented with 1% protease inhibitor cocktail (Sigma-Aldrich) and 5% β-mercaptoethanol (Sigma-Aldrich). Lysates were heated at 95° C. for 10 minutes, separated by sodium dodecyl sulfate-polyacrylamide gel electrophoresis on 10% Tris-glycine precast gels, and transferred to polyvinylidene difluoride membranes. Rabbit or mouse antibodies used were specific for phosphorylated Akt (p-Akt), pan-Akt, p-FoxO1, FoxO1, p-JAK2, JAK2, and β-actin; for p-ERK, ERK-2, STAT5, and the precursor form of SREBP-1; and for p-STAT5. Membranes were blocked with 5% bovine serum albumin in Tris-buffered saline containing 0.01% polysorbate 20. All primary antibodies were diluted to 1:1000 in blocking buffer except for p-Akt (1:4000), p-ERK (1:2000), ERK-2 (1:4000), SREBP-1 (1:200), and β-actin (1:10 000). Horseradish peroxidase-conjugated secondary antibodies were goat anti-rabbit IgG and Fc-specific goat anti-mouse IgG diluted to 1:5000. Proteins were visualized with enhanced chemiluminescent substrate or with ultrasensitive chemiluminescent substrate. Densitometry was performed with image-processing software.
Turning to the influence of IGF-1 and GH on SREBP-1 expression and lipid accumulation, the experiments examined whether IGF-1 stimulates SREBP-1 expression and lipid accumulation in human meibomian gland epithelial cells. Cells were cultured for 6 days in differentiation media with IGF-1 and then processed the cells for protein and histologic analysis.
FIGS. 11a, 11b, 11c, and 11d illustrate the effect of IGF-1 on sterol regulatory element-binding protein (SREBP-1) expression and lipid accumulation in human meibomian gland epithelial cells. Cells were exposed to IGF-1 or growth hormone (GH) for 6 days in differentiation media and then processed for the analysis of the precursor form of SREBP-1 protein. […] represents 4′,6-diamidino-2-phenylindole nuclear staining. The SREBP-1 densitometry, normalized to that of β-actin, and neutral lipid staining fluorescence intensity (6 field views per treatment condition) were quantified by using image-processing software. These experiments were repeated at least 3 times with similar results. ANOVA indicates analysis of variance; AU, arbitrary units. Whiskers represent SEM.
FIGS. 15a, 15b, 15c, and 15d illustrate the effect of IGF-1, AZM, and IFG-1+AZM combination on the expression of SREBP-1, cyclins B1, and D1. Cells were incubated with vehicle, 10 nM IGF-1, 10 μg/mL AZM, or IGF-1+AZM combination for 5 days. Cell lysates were evaluated on immunoblots for precursor and mature forms of SREBP-1, cyclins B1 and D1. FIG. 15a quantifies the protein band intensities using ImageJ. […] These experiments were repeated at least three times with similar results.
A general note: In western blotting, separated proteins are transferred to a membrane and probed.

Assay [4] has as its system immortalized human meibomian gland epithelial cells. Briefly: LipidTOX green neutral lipid staining (lipid accumulation). The note with it: 10 nM each hormone, up to 13 days.
Where [5] appears, read: azithromycin 10 μg/ml vs vehicle.
Setting [6] is: 10 nM IGF-1 or 10 μg/mL AZM, 5 days.

The results in this text go back to patent US20200297820A1, “STIMULATION OF HUMAN MEIBOMIAN GLAND FUNCTION” (The Schepens Eye Research Institute, Inc., priority 2013, published 2020).

“Also recorded” adds a separate entry of the source. Where two headings read alike, the source gives them in different places. A value given as a limit tells only on which side of the number the result lay.

For `CC[C@H]1OC(=O)[C@H](C)[C@@H](O[C@H]2C[C@@](C)(OC)[C@@H](O)[C@H](C)O2)[C@H](C)[C@@H](O[C@@H]2O[C@H](C)C[C@H](N(C)C)[C@H]2O)[C@](C)(O)C[C@@H](C)CN(C)[C@H](C)[C@@H](O)[C@]1(C)O` [Azithromycin], the cell proliferation result in assay [1] is on record as “significant but opposite effect”. Besides, the proliferation result in assay [1] (azithromycin 10 μg/ml, absence and presence of serum, days 1 to 7) is given as “generally reduced the proliferation”. The “fluorescence intensity of LipidTOX staining” value in assay [2] (10 μg/mL, 13 days, two-way ANOVA P<0.0001) is “significant effect”. Also, the “accumulation of neutral lipids (LipidTOX)” value in assay [2] (10 μg/ml, 5 days) is listed as “significantly stimulates the accumulation”. Also, in assay [2] (setting [5]), the “time to marked increase of number, size and staining intensity of intracellular lipid-containing vesicles” value is reported as not above 3 days; the accumulation of lipid entry is recorded as “striking, time-dependent accumulation of lipid”. Besides, in assay [2] (azithromycin 10 μg/ml vs vehicle, listed as azithromycin), the accumulation of lipid entry is listed as “time-dependent accumulation of lipids; also recorded: striking, time-dependent accumulation of lipid”. For the same molecule, in assay [3] (setting [6]), the “expression of mature SREBP-1” value is “significant effect”. Moreover, the “expression of SREBP-1 protein” value in assay [3] (azithromycin 10 μg/ml) was “increased expression”.
Take GH: human growth hormone: the proliferation result in assay [1] (any of the media, doses 0.1 to 100 nM) was “no influence on the proliferation”. In addition, the “accumulation of neutral lipids” value in assay [2] was “not duplicated”. For the same molecule, in assay [3], the “amount of the precursor form of SREBP-1 protein” value was “not duplicated”. The accumulation of lipid result in assay [4] was “significant accumulation of lipid”.
For the molecule “IGF-1: recombinant human insulin-like growth factor 1”, in assay [1], the proliferation result is given as “increases the proliferation” and the cell proliferation entry was “significant but opposite effect”. Besides, in assay [1] (10% FBS-containing medium, 2 to 6 days), the cell number entry is “increase in cell number”. The cell number result in assay [1] (keratinocyte serum-free medium alone or with EGF-BPE, 2 days) is given as “not under basal conditions”. The “accumulation of neutral lipids” value in assay [2] is listed as “increase in the accumulation of neutral lipids”. The “expression of pre-SREBP-1” value in assay [3] (10 nM IGF-1, 5 days) was “significantly affected”. Further, in assay [3] (setting [6]), the “expression of cyclin B1” value is given as “significantly affected” and the “expression of mature SREBP-1” value is “significantly affected”. The “amount of the precursor form of SREBP-1 protein” value in assay [3] was “rise in the amount of the precursor form of SREBP-1 protein”. Further, in assay [3] (IGF-1 10 nM, alone or with GH and/or DHT), the “expression of SREBP-1 protein” value is reported as “significant increase in the expression of SREBP-1 protein”. Moreover, the accumulation of lipid result in assay [4] is “significant accumulation of lipid”.
